Results as given in US20260209220A1, “SUBSTITUTED TETRAHYDROPYRROLO-PYRIDINONE COMPOUNDS AND THEIR USE IN TREATING MEDICAL CONDITIONS” (Karuna Therapeutics, Inc., priority 2022, published 2026).

Experiments:
[1] = target: T1, hM4 receptors (Homo sapiens, UniProt P08173); assay: Human M4 PAM PERK assay (CHO cells, TR-FRET, with EC20 acetylcholine); type: cell-based
T1 construct: expressed in transfected cells; host or cells: CHO cells
T1 sequence (P08173 1-479): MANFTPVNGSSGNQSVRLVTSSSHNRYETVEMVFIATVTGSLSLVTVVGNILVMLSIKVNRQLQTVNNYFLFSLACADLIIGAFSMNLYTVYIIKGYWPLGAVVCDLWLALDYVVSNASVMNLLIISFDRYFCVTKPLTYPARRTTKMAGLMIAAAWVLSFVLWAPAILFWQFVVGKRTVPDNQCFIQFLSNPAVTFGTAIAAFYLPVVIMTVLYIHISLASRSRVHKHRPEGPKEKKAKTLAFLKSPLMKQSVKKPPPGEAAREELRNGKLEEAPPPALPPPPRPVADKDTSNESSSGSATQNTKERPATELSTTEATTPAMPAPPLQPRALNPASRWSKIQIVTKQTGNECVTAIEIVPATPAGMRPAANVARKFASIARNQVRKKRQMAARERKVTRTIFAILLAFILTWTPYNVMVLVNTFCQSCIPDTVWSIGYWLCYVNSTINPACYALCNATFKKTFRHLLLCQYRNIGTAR
Procedure: (§1) Chinese hamster ovary (CHO) cells expressing either hM4 or rM4 receptors were frozen in assay ready vials (5×10^6 cells/vial) after bulking-up in culture. The day before an assay, vial(s) were thawed and cells seeded in 384 well white proxiplates at 1000/well for hM4 cells and at 2000/well for rM4 cells, in 10 μL of growth media (Hams/F12 with glutamax and 10% FCS) and incubated overnight at 37° C./5% CO2.
(§2) On the following morning, the growth media was removed by ‘flicking out’ over a bin, patting the inverted plate onto tissue, and then replacing with 10 μL of wash media (Hams/F12 with glutamax and 8 mM HEPES, NB: serum free). Then, the wash media was removed in the same way and replaced with 8 μL/well of the serum free media. Plates were then re-incubated for a further 4 hours at 37° C./5% CO2.
(§3) Compounds for testing were solubilized to 10 mM in DMSO and compound addition plates, consisting of ten-point concentration response curves (CRC) in duplicate points (10 μM top concentration, ½ log dilution series), were prepared by acoustic dispensing and the compound management group.
(§4) After the 4-hour incubation in serum free media, a 4 μL aliquot of the 3×compound solution containing an EC20 of acetylcholine (10 nM final concentration) was added to the cell plate using a 384 well plate to plate transfer. Then, the plate lid was replaced, and the cells incubated for 5 mins at 37° C./5% CO2. Following this final incubation, all cellular processes were stopped by the addition of 4 μL/well of lysis and blocking buffer and plates were incubated for 30 minutes at RT on an orbital shaker (gentle setting). Then, a final addition of 4 μL/well of antibody detection mix, containing both the Europium-Cryptate (donor) and d2 (acceptor) tagged detection components, was added followed by a further 2-hour incubation at RT, and then the plate was read using a TR-FRET (time resolved fluorescence resonance energy transfer) based protocol.

[2] = target: T2, rM4 receptors (Rattus norvegicus, UniProt P08485); assay: Rat M4 PAM PERK assay (CHO cells, TR-FRET, with EC20 acetylcholine); type: cell-based
T2 construct: expressed in transfected cells; host or cells: CHO cells
T2 sequence (P08485 1-478): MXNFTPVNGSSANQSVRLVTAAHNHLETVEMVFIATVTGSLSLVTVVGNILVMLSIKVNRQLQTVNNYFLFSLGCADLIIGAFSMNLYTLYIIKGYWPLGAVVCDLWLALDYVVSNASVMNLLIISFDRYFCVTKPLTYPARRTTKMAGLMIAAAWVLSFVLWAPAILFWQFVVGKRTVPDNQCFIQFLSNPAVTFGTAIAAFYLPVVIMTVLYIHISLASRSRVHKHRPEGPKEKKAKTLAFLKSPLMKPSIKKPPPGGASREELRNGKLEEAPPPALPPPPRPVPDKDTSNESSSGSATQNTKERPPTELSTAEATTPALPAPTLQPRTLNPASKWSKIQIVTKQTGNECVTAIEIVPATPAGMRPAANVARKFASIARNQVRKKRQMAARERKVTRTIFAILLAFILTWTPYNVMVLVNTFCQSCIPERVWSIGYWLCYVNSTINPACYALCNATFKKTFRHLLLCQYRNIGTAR
Procedure: as §1, §2, §3, §4

Row | SMILES | EC50 [1] [µM] | EC50 [2] [µM]
1 | Cc1c2c(n(C)c(=O)c1C)CN(C(=O)CC1CN(c3ccc(C4CC4)c(F)c3)C1C)C2 (centres unmarked) [Compound I-60, 6-(2-(1-(4-Cyclopropyl-3-fluorophenyl)-2-methylazetidin-3-yl)acetyl)-1,3,4-trimethyl-1,5,6,7-tetrahydro-2H-pyrrolo[3,4-b]pyridin-2-one] | < 0.05 | < 0.05
2 | Cc1c2c(n(C)c(=O)c1Cl)CN(C(=O)C(C)C1CN(c3ccnc(C(F)(F)F)c3)C1)C2 (single isomer, unassigned) [Compound I-83, 3-Chloro-1,4-dimethyl-6-(2-(1-(2-(trifluoromethyl)pyridin-4-yl)azetidin-3-yl)propanoyl)-1,5,6,7-tetrahydro-2H-pyrrolo[3,4-b]pyridin-2-one] | > 1 | > 1
3 | Cc1c2c(n(CC(F)(F)F)c(=O)c1Cl)CN(C(=O)CC1CN(c3cccnc3)C1)C2 [Compound I-93, 3-Chloro-4-methyl-6-(2-(1-(pyridin-3-yl)azetidin-3-yl)acetyl)-1-(2,2,2-trifluoroethyl)-1,5,6,7-tetrahydro-2H-pyrrolo[3,4-b]pyridin-2-one] | 0.05 to 0.2 | 0.05 to 0.2
4 | Cc1c2c(n(C)c(=O)c1Cl)CN(C(=O)CC1CN(c3ccccc3C(F)(F)F)C1)C2 [Compound I-74] | 0.05 to 0.2 | 0.2 to 1
5 | Cc1cc(=O)n(C)c2c1CN(C(=O)CC1CN(c3ccncn3)C1)C2 [Compound I-6] | 0.2 to 1 | 0.2 to 1
6 | Cc1c2c(n(C)c(=O)c1C)CN(C(=O)CC1CN(c3cnc(C(F)(F)F)cn3)C1)C2 [Compound I-50] | 0.2 to 1 | 0.05 to 0.2
7 | Cc1cc(=O)n(CC(F)(F)F)c2c1CN(C(=O)CC1CN(c3ccc(C(F)(F)F)cc3)C1)C2 [Compound I-105, 4-Methyl-1-(2,2,2-trifluoroethyl)-6-(2-(1-(4-(trifluoromethyl)phenyl)azetidin-3-yl)acetyl)-1,5,6,7-tetrahydro-2H-pyrrolo[3,4-b]pyridin-2-one] | > 1 | 0.2 to 1
8 | Cc1cc2c(n(C)c1=O)CN(C(=O)CC1CN(c3ccnc(C(F)(F)F)c3)C1)C2 [Compound I-112, 1,3-Dimethyl-6-(2-(1-(2-(trifluoromethyl)pyridin-4-yl)azetidin-3-yl)acetyl)-1,5,6,7-tetrahydro-2H-pyrrolo[3,4-b]pyridin-2-one] | 0.05 to 0.2 | > 1
9 | Cc1c2c(n(C)c(=O)c1Cl)CN(C(=O)CC1CN(c3ccnnc3)C1)C2 [Compound I-81, 3-Chloro-1,4-dimethyl-6-(2-(1-(pyridazin-4-yl)azetidin-3-yl)acetyl)-1,5,6,7-tetrahydro-2H-pyrrolo[3,4-b]pyridin-2-one] | < 0.05 | > 1
10 | Cc1cc(=O)n(C)c2c1CN(C(=O)CC1CN(c3ccnc(C(F)(F)F)c3)C1)C2 [Compound I-1, 1,4-Dimethyl-6-(2-(1-(2-(trifluoromethyl)pyridin-4-yl)azetidin-3-yl)acetyl)-1,5,6,7-tetrahydro-2H-pyrrolo[3,4-b]pyridin-2-one] | < 0.05 | 0.2 to 1
11 | Cc1c2c(n(C)c(=O)c1C#N)CN(C(=O)CC1CN(c3ccnc(C(F)(F)F)c3)C1)C2 [Compound I-111, 1,4-Dimethyl-2-oxo-6-(2-(1-(2-(trifluoromethyl)pyridin-4-yl)azetidin-3-yl)acetyl)-2,5,6,7-tetrahydro-1H-pyrrolo[3,4-b]pyridine-3-carbonitrile] | 0.05 to 0.2 | 0.2 to 1
12 | Cc1c2c(n(C)c(=O)c1Cl)CN(C(=O)CC1CN(c3cnccn3)C1)C2 [Compound I-72] | < 0.05 | 0.05 to 0.2
13 | Cc1c2c(n(C)c(=O)c1C)CN(C(=O)CC1CN(c3cccc(F)c3F)C1)C2 [Compound I-48] | < 0.05 | 0.05 to 0.2
14 | Cc1c2c(n(C)c(=O)c1Cl)CN(C(=O)CC1CN(c3cccnc3)C1)C2 [Compound I-67] | < 0.05 | 0.05 to 0.2
15 | Cc1c2c(n(C)c(=O)c1C)CN(C(=O)CC1CN(c3ccc(F)c(C(F)(F)F)c3)C1)C2 [Compound I-49] | 0.05 to 0.2 | 0.05 to 0.2
16 | Cc1c2c(n(CC(F)(F)F)c(=O)c1Cl)CN(C(=O)CC1CN(c3ccccc3)C1)C2 [Compound I-94] | 0.2 to 1 | 0.2 to 1
17 | Cc1c2c(n(C)c(=O)c1F)CN(C(=O)CC1CN(c3cccc(C(F)(F)F)c3F)C1)C2 [Compound I-86] | 0.2 to 1 | 0.2 to 1
18 | COc1cc(N2CC(CC(=O)N3Cc4c(C)c(Cl)c(=O)n(C)c4C3)C2)ccn1 [Compound I-77] | < 0.05 | 0.2 to 1
19 | COc1cncc(N2CC(CC(=O)N3Cc4c(C)cc(=O)n(C)c4C3)C2)c1 [Compound I-15] | < 0.05 | 0.2 to 1
20 | Cc1cc(=O)n(C)c2c1C(C)N(C(=O)CC1CN(c3ccnc(C(F)(F)F)c3)C1)C2 (racemic) [Compound I-113, (±)-1,4,5-Trimethyl-6-(2-(1-(2-(trifluoromethyl)pyridin-4-yl)azetidin-3-yl)acetyl)-1,5,6,7-tetrahydro-2H-pyrrolo[3,4-b]pyridin-2-one] | > 1 | > 1
21 | Cc1cc(=O)n(C)c2c1CN(C(=O)CC1CN(c3cnnc(C4CC4)c3)C1)C2 [Compound I-38, 6-(2-(1-(6-Cyclopropylpyridazin-4-yl)azetidin-3-yl)acetyl)-1,4-dimethyl-1,5,6,7-tetrahydro-2H-pyrrolo[3,4-b]pyridin-2-one] | 0.05 to 0.2 | 0.2 to 1
22 | Cc1c2c(n(C)c(=O)c1Br)CN(C(=O)CC1CN(c3ccnc(C(F)(F)F)c3)C1)C2 [Compound I-110, 3-Bromo-1,4-dimethyl-6-(2-(1-(2-(trifluoromethyl)pyridin-4-yl)azetidin-3-yl)acetyl)-1,5,6,7-tetrahydro-2H-pyrrolo[3,4-b]pyridin-2-one] | < 0.05 | 0.2 to 1
23 | Cc1c2c(n(C)c(=O)c1C)CN(C(=O)CC1CN(c3ccc(CC(C)(C)O)c(F)c3)C1)C2 [Compound I-57] | < 0.05 | 0.05 to 0.2
24 | Cc1c2c(n(C)c(=O)c1F)CN(C(=O)CC1CN(c3ccnc(C(F)(F)F)c3)C1)C2 [Compound I-84, 3-Fluoro-1,4-dimethyl-6-(2-(1-(2-(trifluoromethyl)pyridin-4-yl)azetidin-3-yl)acetyl)-1,5,6,7-tetrahydro-2H-pyrrolo[3,4-b]pyridin-2-one] | < 0.05 | 0.05 to 0.2
25 | Cc1cc(=O)n(C)c2c1CN(C(=O)CC1CN(c3cc(C4CC4)c(C#N)c(C(F)(F)F)c3)C1)C2 [Compound I-40, 2-Cyclopropyl-4-(3-(2-(1,4-dimethyl-2-oxo-1,2,5,7-tetrahydro-6H-pyrrolo[3,4-b]pyridin-6-yl)-2-oxoethyl)azetidin-1-yl)-6-(trifluoromethyl)benzonitrile] | 0.2 to 1 | 0.2 to 1
26 | CSc1c2c(n(C)c(=O)c1C)CN(C(=O)CC1CN(c3ccnc(C(F)(F)F)c3)C1)C2 [Compound I-104, 1,3-Dimethyl-4-(methylthio)-6-(2-(1-(2-(trifluoromethyl)pyridin-4-yl)azetidin-3-yl)acetyl)-1,5,6,7-tetrahydro-2H-pyrrolo[3,4-b]pyridin-2-one] | 0.2 to 1 | > 1
27 | Cc1cc(=O)n(C)c2c1C(C)N(C(=O)CC1CN(c3ccnc(C(F)(F)F)c3)C1)C2 (centres unmarked) [Compound I-114] | < 0.05 | 0.05 to 0.2
28 | Cc1cc(=O)n(C)c2c1CN(C(=O)CC1CN(c3ccccn3)C1)C2 [Compound I-9] | < 0.05 | 0.2 to 1
